This passage reports IC50 results from PMC6151491, “In Vitro Evaluation of Third Generation PAMAM Dendrimer Conjugates” (Molecules : A Journal of Synthetic Chemistry and Natural …, 2017).

The assay deals with Caco-2 cells. Briefly: Lactate dehydrogenase leakage (LDH) assay. The class given is cell-based, Human. Particulars: 3 h incubation, mean ± S.D., n = 4, read-out: IC50 (viability of Caco-2 cells, LDH assay). As to the method:
Human intestinal adenocarcinoma cells (Caco-2) (passage 110–120) were seeded at 10,000 cells/well in 96-well plates and maintained at 37 °C in an atmosphere of 5% CO2 and 95% relative humidity in Dulbecco’s Modified Eagle’s Medium (DMEM) supplemented with 1% foetal bovine serum, 1% non-essential amino acids, 50 IU/mL penicillin. and […] streptomycin. After 24 h the medium was removed and the cells were washed in phosphate buffered saline and 200 µL Hanks Balanced Salt Solution (HBSS) containing G3 PAMAM dendrimer, conjugates or G0 PAMAM dendrimer at different concentrations (concentrations were calculated using the average molecular weight (Table 1) for each conjugate as a whole macromolecule). Caco-2 cell monolayers were also treated with blank HBSS and 1% Triton X-100 as low and high controls, respectively. After 3 h of incubation at 37 °C, 100 µL/well supernatant was removed carefully and transferred into corresponding wells of an optically clear 96-well flat bottom microplate. LDH leakage in the compartment was quantified using an LDH assay kit.
The percentage was calculated using the following equation:Cytotoxicity (%) = ((exp. − low control)/(high control − low control)) × 100 where exp. is the experimental value.

Regarding “lauroyl-G0-diethylene glycol-naproxen [L-G0-deg-NAP]”, the half-maximal inhibitory concentration (IC50) worked out at 3.18 ± 0.455 mM.
